Measurements published in publication PMC11546719, “Immune Modulatory Profile of the Pateamines PatA and Des-Methyl Des-Amino PatA” (International Journal of Molecular Sciences, 2024).

Tested on: B cells, T cells, M1 MdMs, M2 MdMs
Assay: Immune cell viability, formazan-based assay
Design: species or system human
Details: 48 h
Experimental: nitrogen, and the residue dissolved in 50 µl methanol. The analysis was performed with an Agilent 1290 Inﬁnity LC system (Agilent, Waldbronn, Germany) coupled to a hybrid triple quadrupole linear ion trap mass spectrometer QTRAP 6500+ (Sciex, Darmstadt, Ger-many) equipped with a Turbo-V-source operating in positive electrospray ionization mode. The chromatographic separation was carried out using an Acquity UPLC BEH C18 column (100x 2.1 mm, 1.7 µm; Waters, Eschborn, Deutschland), maintained at 40 °C. Mobile Phase A was 0.1% formic acid with 20 mM ammonium formate and mobile Phase B was meth-anol with 0.1% formic acid with 20 mM ammonium formate. A gradient program was em-ployed at a flow rate of 400 µl/min, as follows: initial 20% B to 0.5 min, increasing to 90% B from 0.5 to 4.5 min, with a hold time of 1.0 min. Re-equilibration was performed by reducing to 20% B from 5.5 to 5.6 min, and then holding at 20% B until 7.0 min.
For analysis and quantiﬁcation of all compounds, Analyst Software 1.7.1 and Multi-quant Software 3.0.3 (both Sciex, Darmstadt, Germany) were used. The precursor-to-prod-uct ion transitions used for quantiﬁcation were: m/z 237.1 → m/z 194.1 for carbamazepine, […]
482.2 for DMDA, and […]. […]
Supplementary Figure S1. […] Viability was determined by a formazan-based assay. […]

CC(/C=C/C(C)=C/[C@@H]1Cc2nc(cs2)CCCCC(=O)O[C@@H](C)C/C(C)=C/C=C\C(=O)O1)=C\CN(C)C [DMDA, des-methyl des-amino pateamine A]
Cytotoxicity in immune cell types: less cytotoxic in comparison with PatA
